# Data reported in patent US9375406B2, “Substituted pyrimidines for mobilizing cells expressing a type 4 CXC chemokine receptor” (TaiGen Biotechnology Co., Ltd., priority 2014, dated 2016).
# Tested on: T acute lymphoblastic leukemia (T-ALL) cells
# Description: Mononuclear human leukemia cells were prepared using Ficoll gradient centrifugation and cryopreserved in liquid nitrogen. The frozen cells were thawed quickly and washed with PBS to remove the cryopreservation reagent. NOD/SCID mice (Institute of Cellular and Organismic Biology, Academia Sinica) were preconditioned with 200 centigray of total body irradiation at 6-8 weeks of age. The leukemia cells were then transplanted to the preconditioned NOD/SCID mice via tail vein. The resulting leukemia blast cells, i.e., T acute lymphoblastic leukemia (T-ALL) cells and acute myelogenous leukemia (AML) cells, were recovered from spleen and used in experiments as described below.
# Mice were monitored for leukemia cell engraftment and dissemination by the appearance of human CD45^+ cells in mouse peripheral blood, which were sampled weekly after the 3rd week of cell transplantation. Peripheral blood samples were taken from the tail vein and red blood cells were lysed in ammonium chloride and resuspensed in Phosphate buffered saline (PBS) plus 2% Fetal Bovine Serum (FBS) before cell staining. […] After immunostaining, cells were washed, suspended in PBS plus 2% FBS, and analyzed using FACS Calibur (BD Biosciences). […]
compound,measurement,setting,value
CC[C@]1(O)C[C@H]2CN(CCc3c([nH]c4ccccc34)[C@@](C(=O)OC)(c3cc4c(cc3OC)N(C=O)[C@H]3[C@@](O)(C(=O)OC)[C@H](OC(C)=O)[C@]5(CC)C=CCN6CC[C@]43[C@@H]65)C2)C1 [vincristine],average survival time,"vincristine (0.5 mg/kg ip) alone, days 14, 21, 28",73.6 ± 7.1 days
same,time until which CD45+ cells in the peripheral blood were not detected,vincristine (0.5 mg/kg) alone,8 weeks
